Test results taken from PMC10641814 (Journal of Medicinal Chemistry, 2023).

Legend:
[1] = target: T1, h5-HT6R (Homo sapiens, UniProt P50406); assay: 5-HT6R antagonist activity at Gs signaling, cAMP in 1321N1 cells (5-CT stimulated); type: cell-based; conditions: 1321N1 cells expressing h5-HT6R; read-out: EC50 (agonist, cAMP production)
T1 construct: expressed in transfected cells

[2] = test system: SCOP-induced cognitive impairment in rats; assay: Scopolamine-induced amnesia in NOR test in rats; type: in vivo, rat; conditions: SCOP 1.25 mg/kg ip, PZ-1922 0.3, 1, 3 mg/kg ip, donepezil 1 and 3 mg/kg ip
Experimental: Rats were allowed to acclimate for at least 7 days before the beginning of the experimental procedure. During this week, the animals were handled at least 3 times. Behavioral testing was carried out during the light phase of the light/dark cycle. The experiments were conducted in accordance with the NIH Guide for the Care and Use of Laboratory Animals and were approved by the Ethics Committee for Animal Experiments, Maj Institute of Pharmacology. At least 1 h before the beginning of the experiments, rats were transferred to the experimental room for acclimation. Rats were tested in a dimly lit (25 lx) “open field” apparatus made of dull gray plastic (66 × 56 × 30 cm). After each measurement, the floor was cleaned and dried. […] For the scopolamine-induced memory impairment paradigm, 1 h ITI was chosen. During the first trial (familiarization T1), two identical objects (A1 and A2) were presented in opposite corners, approximately 10 cm from the walls of the open field. In the second trial (recognition, T2), one of the objects was replaced by a novel one (A = familiar and B = novel). […] Exploration time of the objects and the distance traveled were measured using the Any-maze video tracking system. Based on exploration time (E) of two objects during T2, the discrimination index (DI) was calculated according to the formula DI = (EB – EA)/(EA + AB).

[3] = target: the molecule itself; assay: cryo-EM structure; purified receptor in detergent C12E9, pentameric SEC fractions concentrated to 10 mg/mL, incubated 5 min with PZ-1922 or PZ-1939 before freezing

T1 sequence (P50406 whole entry): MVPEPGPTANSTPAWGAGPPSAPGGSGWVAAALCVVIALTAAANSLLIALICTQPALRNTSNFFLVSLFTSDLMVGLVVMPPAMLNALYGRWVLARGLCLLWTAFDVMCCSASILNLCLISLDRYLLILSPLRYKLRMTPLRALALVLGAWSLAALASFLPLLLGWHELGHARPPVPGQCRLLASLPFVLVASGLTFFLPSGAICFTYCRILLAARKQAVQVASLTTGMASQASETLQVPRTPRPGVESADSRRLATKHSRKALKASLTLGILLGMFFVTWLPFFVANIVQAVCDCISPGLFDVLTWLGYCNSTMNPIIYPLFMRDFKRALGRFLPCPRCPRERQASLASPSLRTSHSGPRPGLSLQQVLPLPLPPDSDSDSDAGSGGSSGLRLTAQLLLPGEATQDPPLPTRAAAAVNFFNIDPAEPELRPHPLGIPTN

NCCc1c[nH]c2ccc(C(N)=O)cc12 [Compound 5-CT, 5-carboxamidotryptamine]
EC50 [1]: 13 nM

COc1cc2c(cc1OC)C(=O)C(CC1CCN(Cc3ccccc3)CC1)C2 (stereo not drawn) [donepezil]
effect on SCOP-induced short-term memory deficits (discrimination index) in NOR test [2]: reduced the memory deficits induced by SCOP

B1: mouse 5-HT3A receptor (receptor, UniProt P23979 24-489, looked up)
chain: SRRRATQARDTTQPALLRLSDHLLANYKKGVRPVRDWRKPTTVSIDVIMYAILNVDEKNQVLTTYIWYRQYWTDEFLQWTPEDFDNVTKLSIPTDSIWVPDILINEFVDVGKSPNIPYVYVHHRGEVQNYKPLQLVTACSLDIYNFPFDVQNCSLTFTSWLHTIQDINITLWRSPEEVRSDKSIFINQGEWELLEVFPQFKEFSIDISNSYAEMKFYVIIRRRPLFYAVSLLLPSIFLMVVDIVGFCLPPDSGERVSFKITLLLGYSVFLIIVSDTLPATAIGTPLIGVYFVVCMALLVISLAETIFIVRLVHKQDLQRPVPDWLRHLVLDRIAWILCLGEQPMAHRPPATFQANKTDDCSGSDLLPAMGNHCSHVGGPQDLEKTPRGRGSPLPPPREASLAVRGLLQELSSIRHFLEKRDEMREVARDWLRVGYVLDRLLFRIYLLAVLAYSITLVTLWSIWHYS
notes: 5-hydroxytryptamine (serotonin) receptor 3A, mouse; called full-length in the discussion; the construct is only said to be 'as previously described with some minor modifications'; The intracellular domain is only partly resolved; also called m5-HT3R; m5HT3R
stoichiometry N [3]: 5
